{"source": "patent US8546323B2", "about": "“Thrombospondin-1 derived peptides and treatment methods” (priority 2005, dated 2013)", "key": {"[1]": {"tested_on": "binding of TSP-1 to macrophages", "experiment": "cell adhesion assay: macrophage adhesion to TSP-1-coated wells, competition by peptides", "assay_type": "cell-based, murine", "conditions": "wells pre-plated with TSP-1 (40 microg./ml); cells mixed with peptide (0.01M) for 30 minutes", "protocol": "For the peptide experiment, the cells were mixed in suspension with respective peptide (0.01M) for 30 minutes prior to being introduced to TSP-1 wells.\nTSP-1 has multiple potential binding sites for binding macrophages including CD44, IAP, and CD36 (FIG. 1). However there has been no previously established β2-integrin binding motif described in TSP-1. A prior-study using phage sequence assays has reported that the peptide motif D(D/E)(G/L)W (SEQ ID NO: 7) competes with pro-MMP-9 binding to β2-integrin [40]. Through a sequence search of the complete TSP-1 peptide sequence we have determined that TSP-1 has two such putative β2 integrin binding sites: one in TSR-1-(DDGW (SEQ ID NO: 3), a perfect consensus) and another in TSR-2 (DGGW SEQ ID NO: 3), a close consensus with substitution in position 2) as shown in FIG. 2. We have used cell adhesion assay to assess binding of TSP-1 to macrophages (FIG. 6). Using this assay we have been able to show the impact of the D-Xaa-G-W (SEQ ID NO: 5) motif in TSP-1 adhesion to macrophages."}, "TGF-β1 [2]": {"tested_on": "TGF-β1", "conditions": "TSP-1 knockout mouse; cited from earlier work"}, "MMP-9 [3]": {"tested_on": "MMP-9", "experiment": "synthetic peptide in tissue culture: inhibition of MMP-9 activation", "assay_type": "cell-based", "text": "(§1) As such we have identified the two active sites in TSP-1 important for both (1) decreasing MMP-9 activity (2) and activating TGF-β1. Using this knowledge, many peptides having plaque stabilizing properties can be designed and synthesized. We designed and synthesized a representative synthetic sequence combining these two active sites: KRFKQDDGWSPWSEW (SEQ ID NO: 10)."}, "atherosclerotic plaque [4]": {"tested_on": "atherosclerotic plaque", "experiment": "peptide infusion in apoE−/− mice, atherosclerotic plaque", "assay_type": "in vivo, mouse"}, "atherosclerotic plaque [5]": {"tested_on": "atherosclerotic plaque", "experiment": "peptide infusion (alzet pump) in TSP−/−ApoE−/− mice, atherosclerotic lesion composition", "assay_type": "in vivo, mouse", "text": "Generally, “stabilized plaque” is evidenced by limited inflammation at the site of the lesion and/or significant fibrosis within the plaque. These features may be observed by a comparison a TSP-1 deficient control system such as the TSP−/− mice described above. Generally, stabilized plaque may be identified by a comparison of fibrosis and inflammation in treated and untreated animals. The balance between fibrosis and inflammation within the plaque has been a well accepted surrogate marker for propensity of plaque to rupture in multiple different animal models."}, "TGF-β1 [6]": {"molecular_target": "T1, TGF-β1 (Mus musculus, UniProt P04202)", "T1 construct": "endogenous in cells; host or cells: Tissue culture", "T1 sequence (P04202 30-278 limits assumed)": "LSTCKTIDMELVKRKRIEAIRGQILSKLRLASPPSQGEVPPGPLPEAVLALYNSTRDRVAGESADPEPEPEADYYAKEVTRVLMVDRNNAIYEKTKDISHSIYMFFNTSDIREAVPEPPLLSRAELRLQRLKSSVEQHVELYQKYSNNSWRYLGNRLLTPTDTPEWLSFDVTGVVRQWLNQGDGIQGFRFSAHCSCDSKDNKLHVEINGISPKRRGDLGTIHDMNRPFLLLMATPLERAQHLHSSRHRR", "experiment": "synthetic peptide in tissue culture: TGF-β1 activation", "assay_type": "cell-based", "text": "as §1"}, "TGF-β1 [7]": {"tested_on": "TGF-β1", "experiment": "transient transfection of RAW macrophage cells, luciferase induction via TGF-β1 promoter responsive element", "assay_type": "cell-based, mouse", "conditions": "RAW cells transiently transfected with TSP-1 or TSP-1 mutant; cell lysate luciferase; for mutants: fate of the TSP-1 effect", "text": "(§2) (A) There are two putative β2 integrin binding domain in TSR-1 and TSR-2. Note that these two binding domains are adjacent (and overlap by one amino acid) the two binding domains for TGF-β1. We have mutated the two DxGW motifs as shown in the box. […] This effect is abolished by TSP mutants: DM and less so by Mut1. […] This affect is abolished with both TSP-1 mutants Mut1 and Mut2. In summary the DxGW motif in TSR-1 and TSR-2 appear to mediate the effects on of TSP-1 on TGF-β1 activation and MMP-9 inhibition in this cell assay system.\nFurthermore, using our mutants we have observed that WSPW (SEQ ID NO: 9) motif in TSR-2 is primarily responsible for TGF-β1 activation by TSP-1."}, "MMP-9 [8]": {"tested_on": "MMP-9", "experiment": "transient transfection of RAW macrophage cells, active MMP-9/total MMP-9 ELISA", "assay_type": "cell-based, mouse", "conditions": "RAW cells transiently transfected with TSP-1 or TSP-1 mutant; for mutants: fate of the TSP-1 effect", "text": "as §2\nWe have shown TSP-1 binding, to macrophages through the same motif and we postulate one potential mechanism for TSP-1 inhibition, of MMP-9 activity may involve displacement of pro-MMP-9 from cell surface (FIG. 7) by competition for binding. To test this hypothesis we generated various mutants of TSP-1 involving either or both potential β2-intergin binding motif in TSP-1 (FIG. 2). […] This effect was reversed by mutation of the TSR-1 motif but less so with mutation of the TSR-2 motif."}, "[9]": {"conditions": "8-25 μg per day for 5 weeks, versus untreated TSP−/− mice"}}, "note": "“Also recorded” adds a separate entry of the source."}
{"substance": "ADGW", "values": [{"measurement": "interference with macrophage adhesion to TSP-1", "setting": "[1]", "value": "partial interference"}]}
{"substance": "DDGA (DGGW)", "values": [{"measurement": "interference with macrophage adhesion to TSP-1", "setting": "[1]", "value": "lack of interference"}]}
{"substance": "DDGW", "values": [{"measurement": "interference with macrophage adhesion to TSP-1", "setting": "[1]", "value": "sufficient to inhibit cell adhesion to TSP-1"}]}
{"substance": "KRFK", "values": [{"measurement": "rescue of TSP-1 knockout phenotype (localized alveolar inflammation and chronic pneumonia)", "setting": "TGF-β1 [2]", "value": "rescues this phenotype"}]}
{"substance": "KRFKQDDGWSPWSEW", "values": [{"measurement": "ability to inhibit activation of MMP-9", "setting": "MMP-9 [3]", "value": "inhibit activation of MMP-9"}, {"measurement": "plaque stabilization in presence of endogenous TSP-1", "setting": "atherosclerotic plaque [4]", "value": "beneficial effect"}, {"measurement": "inflammation (macrophages) in the intimal lesion", "setting": "atherosclerotic plaque [5]; [9]", "value": "decreased inflammation (macrophages) in the intimal lesion"}, {"measurement": "lipid deposition within the intimal lesions", "setting": "atherosclerotic plaque [5]; [9]", "value": "decreased lipid deposition within the intimal lesions"}, {"measurement": "matrix (collagen and elastin) deposition within the lesion", "setting": "atherosclerotic plaque [5]; [9]", "value": "increased matrix (as measured by collagen and elastin) deposition within the lesion"}, {"measurement": "rescue of the phenotype of TSP−/−ApoE−/− mice (decrease macrophages, increase matrix within the lesion)", "setting": "atherosclerotic plaque [5]; alzet infusion pump, 8-25 μg per day for 5 weeks", "value": "sufficient to rescue the phenotype"}, {"measurement": "plaque stabilizing activity", "setting": "atherosclerotic plaque [5]; mouse model of atherosclerosis", "value": "active in stabilizing plaque"}, {"measurement": "ability to activate TGF-β1", "setting": "TGF-β1 [6]", "value": "activate TGF-β1"}]}
{"substance": "TSP-1: matricellular protein thrombospondin-1, a trimer with a chain molecular mass of 150 kda", "values": [{"measurement": "TGF-β1 activity", "setting": "TGF-β1 [7]", "value": "increases TGF-β1 activity; also recorded: activates TGF-β1"}, {"measurement": "MMP-9 activity (active MMP-9/total MMP-9), conversion of pro-MMP-9 to the active form", "setting": "MMP-9 [8]", "value": "decreases MMP-9 activity; also recorded: decreased conversion of pro-MPP-9 to the active form"}]}
